Results on four compounds are retold here after USRE42890E1, “Furazanobenzimidazoles” (Basilea Pharmaceutica AG, priority 2003, dated 2011).

The subject of one experiment is HT1080. Description: MTS proliferation assay, HT1080. It is filed as cell-based, human. Conditions: HT1080, 72 h incubation; read-out: MTS proliferation assay IC 50 HT1080. The method, boiled down: (§1)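 Cells were seeded 24 h before treatment and exposed to compound at 10, 3, 1 and 0.3 μM final for 72 h at 37 °C, 7.5% CO2 in RPMI-1640 with 5% or 10% FCS. Viability was read by MTS reagent (3 h) as absorbance at 492 nm.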
Background: Tetrazolium assays rely on reduction of a dye to a coloured formazan, in cell work by metabolically active cells.

For a further experiment, the system named is Jurkat. Description: MTS proliferation assay, Jurkat. It is filed as cell-based, human. As to conditions: 72 h incubation, read-out: MTS proliferation assay IC 50 Jurkat. The method, boiled down: as §1
In the next experiment the test system is Jily. Description: MTS proliferation assay, Jily. It is filed as cell-based. Conditions: 72 h incubation, read-out: MTS proliferation assay IC 50 Jily. In a few lines: (§2)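 Cells in RPMI-1640 with 5% or 10% FCS, 2-mercaptoethanol and glutamine were seeded 24 h before treatment with compound at final 10, 3, 1 and 0.3 μM. After 72 h at 37° C and 7.5% CO2, MTS reagent was added for 3 h and absorbance read at 492 nm.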

The subject of experiment [1] is adherent cells or suspension cells. In words: Hoechst 33342 nuclear staining (fraction of apoptotic nuclei). Set-up: key: 0 relating to no activity; 1 relating to weak activity comprising less than 70% of the cells; score 2 relating to strong activity comprising more than 70% of the cells. It is filed as cell-based.
A further experiment has as its system HeLa. In words: MTS proliferation assay, HeLa. It is filed as cell-based, human. Conditions: 72 h incubation, read-out: MTS proliferation assay IC 50 HeLa. In a few lines:
as §1

The test system of the next experiment is MRC5. Description: MTS proliferation assay, MRC5. Conditions: MRC5, 72 h incubation; read-out: MTS proliferation assay IC 50 MRC5. The class given is cell-based. The method, boiled down: as §2

As to `Cc1ccc(C(=O)Cn2c(-c3nonc3N)nc3ccccc32)cc1` [Example 44], the IC50 with HT1080 was 10 to 100 nM; in the experiment with Jurkat, under 10 nM; in the experiment with Jily it was 10 to 100 nM; in the experiment on HeLa, 10 to 100 nM; in the experiment on MRC5, 10 to 100 nM. Besides, the “Hoechst 33342 nuclear staining score” value in experiment [1] (H460, conc 0.01 μm) is 0; in experiment [1] (H460, conc 0.1 μm), 2 (score 2 relating to strong activity comprising more than 70% of the cells); in experiment [1] (H460, conc 1 μm), 2 (score 2 relating to strong activity comprising more than 70% of the cells); in experiment [1] (HeLa, conc 0.01 μm), 0; in experiment [1] (HeLa, conc 0.1 μm) it was 1 (1 relating to weak activity comprising less than 70% of the cells); in experiment [1] (HeLa, conc 1 μm), 2 (score 2 relating to strong activity comprising more than 70% of the cells). Further, the “Hoechst 33342 nuclear staining score” value in experiment [1] (Jily, conc 0.01 μm) was 0; in experiment [1] (Jily, conc 0.1 μm), 2 (score 2 relating to strong activity comprising more than 70% of the cells); in experiment [1] (Jily, conc 1 μm), 2 (score 2 relating to strong activity comprising more than 70% of the cells); in experiment [1] (Jurkat, conc 0.01 μm), 0; in experiment [1] (Jurkat, conc 0.1 μm), 2 (score 2 relating to strong activity comprising more than 70% of the cells); in experiment [1] (Jurkat, conc 1 μm) it was 2 (score 2 relating to strong activity comprising more than 70% of the cells). In addition, the “Hoechst 33342 nuclear staining score” value in experiment [1] (MRC5, conc 0.01 μm) is listed as 0; in experiment [1] (MRC5, conc 0.1 μm), 0; in experiment [1] (MRC5, conc 1 μm), 2 (score 2 relating to strong activity comprising more than 70% of the cells); in experiment [1] (PBLs, conc 0.01 μm), 0; in experiment [1] (PBLs, conc 0.1 μm) it was 0; in experiment [1] (PBLs, conc 1 μm) it was 0.
For the compound `Nc1nonc1-c1nc2ccccc2n1CC(=O)c1ccc2c(c1)OCO2` [Example 45], the IC50 is 10 to 100 nM in the experiment with HT1080; 10 to 100 nM with Jurkat; 10 to 100 nM with Jily; 10 to 100 nM in the experiment with HeLa; 100 to 1000 nM with MRC5. For the same compound, the “Hoechst 33342 nuclear staining score” value was 0 in experiment [1] (H460, conc 0.01 μm); 2 (score 2 relating to strong activity comprising more than 70% of the cells) in experiment [1] (H460, conc 0.1 μm); 2 (score 2 relating to strong activity comprising more than 70% of the cells) in experiment [1] (H460, conc 1 μm); 0 in experiment [1] (HeLa, conc 0.01 μm); 1 (1 relating to weak activity comprising less than 70% of the cells) in experiment [1] (HeLa, conc 0.1 μm); 2 (score 2 relating to strong activity comprising more than 70% of the cells) in experiment [1] (HeLa, conc 1 μm). Also, the “Hoechst 33342 nuclear staining score” value in experiment [1] (Jily, conc 0.01 μm) is reported as 0; in experiment [1] (Jily, conc 0.1 μm) it was 2 (score 2 relating to strong activity comprising more than 70% of the cells); in experiment [1] (Jily, conc 1 μm), 2 (score 2 relating to strong activity comprising more than 70% of the cells); in experiment [1] (Jurkat, conc 0.01 μm), 0; in experiment [1] (Jurkat, conc 0.1 μm), 2 (score 2 relating to strong activity comprising more than 70% of the cells); in experiment [1] (Jurkat, conc 1 μm) it was 2 (score 2 relating to strong activity comprising more than 70% of the cells). Moreover, the “Hoechst 33342 nuclear staining score” value in experiment [1] (MRC5, conc 0.01 μm) is given as 0; in experiment [1] (MRC5, conc 0.1 μm) it was 0; in experiment [1] (MRC5, conc 1 μm), 2 (score 2 relating to strong activity comprising more than 70% of the cells); in experiment [1] (PBLs, conc 0.01 μm), 0; in experiment [1] (PBLs, conc 0.1 μm), 0; in experiment [1] (PBLs, conc 1 μm), 0.
For the compound `N#CCCNc1nonc1-c1nc2ccccc2n1CC(=O)c1ccc2ccccc2c1` [Example 46], the IC50 in the experiment on HT1080 was 10 to 100 nM; in the experiment with Jurkat, under 10 nM; in the experiment with Jily, 10 to 100 nM; with HeLa, 10 to 100 nM; in the experiment with MRC5, 100 to 1000 nM. The “Hoechst 33342 nuclear staining score” value in experiment [1] (H460, conc 0.01 μm) is on record as 0; in experiment [1] (H460, conc 0.1 μm) it was 0; in experiment [1] (H460, conc 1 μm), 2 (score 2 relating to strong activity comprising more than 70% of the cells); in experiment [1] (HeLa, conc 0.01 μm), 0; in experiment [1] (HeLa, conc 0.1 μm), 0; in experiment [1] (HeLa, conc 1 μm), 2 (score 2 relating to strong activity comprising more than 70% of the cells). Moreover, the “Hoechst 33342 nuclear staining score” value in experiment [1] (Jily, conc 0.01 μm) was 0; in experiment [1] (Jily, conc 0.1 μm), 2 (score 2 relating to strong activity comprising more than 70% of the cells); in experiment [1] (Jily, conc 1 μm), 2 (score 2 relating to strong activity comprising more than 70% of the cells); in experiment [1] (Jurkat, conc 0.01 μm), 0; in experiment [1] (Jurkat, conc 0.1 μm), 2 (score 2 relating to strong activity comprising more than 70% of the cells); in experiment [1] (Jurkat, conc 1 μm), 2 (score 2 relating to strong activity comprising more than 70% of the cells). The “Hoechst 33342 nuclear staining score” value in experiment [1] (MRC5, conc 0.01 μm) is 0; in experiment [1] (MRC5, conc 0.1 μm), 0; in experiment [1] (MRC5, conc 1 μm), 2 (score 2 relating to strong activity comprising more than 70% of the cells); in experiment [1] (PBLs, conc 0.01 μm) it was 0; in experiment [1] (PBLs, conc 0.1 μm) it was 0; in experiment [1] (PBLs, conc 1 μm), 0.
As to `N#CCCNc1nonc1-c1nc2ccccc2n1CC(=O)c1ccc(Br)cc1` [Example 47], the IC50 in the experiment on HT1080 is 10 to 100 nM; in the experiment with Jurkat, under 10 nM; with Jily it was under 10 nM; in the experiment on HeLa, 10 to 100 nM; in the experiment with MRC5, 100 to 1000 nM. Also, the “Hoechst 33342 nuclear staining score” value is reported as 0 in experiment [1] (H460, conc 0.01 μm); 2 (score 2 relating to strong activity comprising more than 70% of the cells) in experiment [1] (H460, conc 0.1 μm); 2 (score 2 relating to strong activity comprising more than 70% of the cells) in experiment [1] (H460, conc 1 μm); 0 in experiment [1] (HeLa, conc 0.01 μm); 2 (score 2 relating to strong activity comprising more than 70% of the cells) in experiment [1] (HeLa, conc 0.1 μm); 2 (score 2 relating to strong activity comprising more than 70% of the cells) in experiment [1] (HeLa, conc 1 μm). In addition, the “Hoechst 33342 nuclear staining score” value in experiment [1] (Jily, conc 0.01 μm) is recorded as 0; in experiment [1] (Jily, conc 0.1 μm), 2 (score 2 relating to strong activity comprising more than 70% of the cells); in experiment [1] (Jily, conc 1 μm) it was 2 (score 2 relating to strong activity comprising more than 70% of the cells); in experiment [1] (Jurkat, conc 0.01 μm), 2 (score 2 relating to strong activity comprising more than 70% of the cells); in experiment [1] (Jurkat, conc 0.1 μm), 2 (score 2 relating to strong activity comprising more than 70% of the cells); in experiment [1] (Jurkat, conc 1 μm) it was 2 (score 2 relating to strong activity comprising more than 70% of the cells). For the same compound, the “Hoechst 33342 nuclear staining score” value in experiment [1] (MRC5, conc 0.01 μm) was 0; in experiment [1] (MRC5, conc 0.1 μm) it was 2 (score 2 relating to strong activity comprising more than 70% of the cells); in experiment [1] (MRC5, conc 1 μm), 2 (score 2 relating to strong activity comprising more than 70% of the cells); in experiment [1] (PBLs, conc 0.01 μm), 0; in experiment [1] (PBLs, conc 0.1 μm), 0; in experiment [1] (PBLs, conc 1 μm) it was 0.
